Details of data set [1]: method as in earlier work. The settings on record: standard mixture for the calibration line; cited from earlier work.
For another data set, the system named is S. aureus RN4220. Nature of the data set: MIC/MBC by broth microdilution, S. aureus RN4220. The class given is cell-based. The note with it: Staphylococcus aureus. As to the method: (§1) S. aureus CECT 976, obtained from the Spanish Type Culture Collection, was used as the standard susceptibility testing control strain. This strain has been previously employed in diverse studies to validate the antimicrobial effects of novel molecules. Additional antibiotic-resistant strains, S. aureus XU212, SA1199B, and RN4220, generously provided by S. Gibbons (University College London, London, UK) were tested. […] The SA1199B strain is characterized by its resistance to fluoroquinolones due to the overexpression of the NorA efflux pump and its ciprofloxacin resistance.
(§2) The minimum inhibitory concentration (MIC) and minimum bactericidal concentration (MBC) values of all QHSs were determined by the broth microdilution method, according to the approved M7-A7 (aerobes) standards of the Clinical and Laboratory Standards Institute (CLSI) guidelines. Overnight cell cultures of S. aureus, in the exponential phase of growth, were adjusted to an optical density (OD) of 0.132 ± 0.02 (λ = 600 nm). Then, a volume of 180 µL of the cell suspension was added to sterile, flat, clear-bottomed polystyrene (PS) 96-well microtiter plates (VWR—Radnor, PA, USA), already containing 20 µL of each QHS under study at concentrations ranging from 0.0625 to 64 µg/mL. In the end, the volume of each compound never exceeded 10% (v/v) of the well volume. Microtiter plates were then incubated for 24 h at 37 °C under agitation (150 rpm; INCU-Line IL 150R incubator). Absorbance measurements were performed at the beginning (t = 0 h) and end (t = 24 h) of the incubation period using a microtiter plate absorbance reader (BMG LABTECH FLUOstar Omega). Bacterial suspensions with DMSO and without QHSs were used as negative controls. […] All tests were performed with six replicates and a minimum of three independent repeats.
(§3) Plates were incubated at 37 °C for 24 h, and growth was visually inspected. The MBC was determined as the lowest concentration of compound in which the total inhibition of growth on solid medium was observed (no colony forming units (CFUs) were detected). All tests were performed in triplicate, and with a minimum of three independent repeats.
On the technique in general: In broth dilution the organism is exposed to a series of concentrations in liquid medium.

The next data set concerns HepG2 cells. Description: Cytotoxicity by neutral red (NR) uptake. The class given is cell-based, human. The note with it: HepG2, 24 h. As to the method: The evaluation of the cytotoxicity effects of QHSs was performed using hepatocellular carcinoma (HepG2) cells. […] The cells used for all experiments were taken between the 9th and 13th passages, to avoid phenotypic changes.
The cytotoxicity profile of the compounds under study was evaluated in HepG2 cells (2.5 × 10^5 cells/mL) seeded in 96-well plates. […] Control experiments were performed for viability endpoints by adding the vehicle (medium with 0.1% DMSO) instead of the compound solution.
In the NR uptake assay, following a 24 h incubation period with the test compounds, the cell culture medium was aspirated, and fresh medium containing 150 µL of the dye (at a concentration of […]) was added to the cells. […] After incubation, the cell culture medium was discarded, and a mixture of absolute ethanol and distilled water (1:1) containing 5% acetic acid was added to extract the dye accumulated within the lysosomes of viable cells. The absorbance at 540 nm was measured using a microplate reader (Synergy HTX Multi-Mode Reader—BioTek, Winooski, VT, USA).
For all assays, results are expressed as a percentage of the control (nontreated cells), taken as 100%.

For data set [2], the system named is S. aureus CECT 976. Description: Quantitative suspension test, dose-response against planktonic bacteria. The class given is cell-based, Staphylococcus aureus. The settings on record: S. aureus CECT 976; 30 min exposure. The method, then: A quantitative suspension test to explore the dose–response relationships of QHSs by evaluating bactericidal activity was performed. For this method, overnight grown cultures were centrifuged (VWR Mega Star 600R) at 3772× g for 10 min and washed twice with phosphate-buffered saline (PBS; 1.44 g/L of […]—Labkem, Barcelona, Spain; 8 g/L of sodium chloride, 0.2 g/L of potassium chloride, and 0.24 g/L of potassium dihydrogen phosphate—VWR, Leuven, Belgium) at pH 7.4. The collected cells were resuspended in PBS and adjusted to an optical density (OD) of 0.132 ± 0.02 (λ = 600 nm). Afterwards, 100 µL of this cell suspension was aseptically transferred to 800 µL of DW and allowed to stand for 2 min. To this mixture, 100 µL of each QHS solution diluted in DMSO at the desired concentration was added. The dose–response evaluation took place for 30 min at 37 °C. In the case of the negative control (untreated cells), the QHS solution was replaced by an equal volume of DMSO or DW. At the end of the contact time, QHS neutralization was performed through the dilution-neutralization method using a universal neutralizer (1 g/L L-histidine (Merck—Tokyo, Japan), 3 g/L lecithin (Alfa Aesar—Karlsruhe, Germany), 5 g/L sodium thiosulphate (Labkem—Barcelona, Spain), 30 g/L saponin (VWR Chemicals—Leuven, Belgium), and 30 g/L polysorbate 80 (VWR Chemicals—Le Havre, France) in 0.0025 M phosphate buffer). For neutralization, the test blend (100 µL) was added to 800 µL sterile aqueous neutralizing solution and 100 µL of DW. The mixture was gently agitated and allowed to stand for 10 min, after which serial dilutions (up to 10^−5) in sterile saline solution (0.85% w/v NaCl) were prepared. Then, 10 µL of each serial dilution was plated into Petri dishes containing PCA by the drop-plating method. The plates were allowed to set, then inverted and placed in an incubator at 37 °C for 24 h. The surviving cells on the QHS neutralized samples were determined by CFU counting on each plate, ensuring the counting of dilution plates that gave between 10 and 100 CFUs. The antibacterial activity was evaluated by quantification of logarithmic reduction (log CFU/mL), according to Equation (2). log CFU/mL reduction = log (X) − log (X0), (2) where X0 and X are the counts of CFU/mL before (untreated control cells) and after quaternary salt exposure, respectively.
The QHS concentrations chosen for conducting the dose–response tests comprise of the MBC, which causes the complete reduction of planktonic cells, as well as lower concentrations. Specifically, compound 1e was evaluated at concentrations of 0.25, 0.5, 0.75, 1, 2, 4, 8, and 16 µg/mL, compound 7e at concentrations of 1, 2, 3.2, 3.5, 4, 8, and 16 µg/mL, compound 5e at concentrations of 0.5, 1, 1.3, 1.6, 2, 4, and 8 µg/mL, and compound 3e at concentrations of 0.5, 0.75, 1, 1.3, 1.6, 2, 4, and 8 µg/mL. In the case of compounds 2e, 6e, and 4e, concentrations tested were 0.5, 1, 1.6, 2, 4, and 8 µg/mL. All tests were performed in duplicate, and with a minimum of three independent repeats.
The Chick–Watson mathematical model, provided in Equation (3), is considered an adequate approach to validate the kinetics of dose–response data. log X/X0 = − Kdis C^n t (3) where X0 and X are the counts of CFU/mL before and after quaternary salt exposure, respectively; Kdis is a killing rate coefficient ((mL.µg^−1)^n.min^−1); C is the quaternary salt concentration (µg.mL^−1); n is the concentration exponent and t is the exposure time (min). The concentration dependence of killing (n) was determined using a toolbox for linear regression in GraphPad Prism (version 8.4.0, GraphPad Software, La Jolla, CA, USA). The quality of the model was evaluated through the regression coefficient (R^2).

The next data set has as its system S. aureus XU212. Description: MIC/MBC by broth microdilution, S. aureus XU212. The class given is cell-based. The note with it: Staphylococcus aureus. The method, then: as §1, §2, §3
Data set [3] concerns S. aureus SA1199B. Nature of the data set: MIC/MBC by broth microdilution, S. aureus SA1199B. The class given is cell-based. The note with it: Staphylococcus aureus. As to the method:
as §1, §2, §3

Data set [4] relates to S. aureus CECT 976. Description: MIC/MBC by broth microdilution, S. aureus CECT 976. The note with it: Staphylococcus aureus, CECT976, S. aureus CECT 976, broth microdilution. The class given is cell-based. The method, then: as §2
Plates were incubated at 37 °C for 24 h, and growth was visually inspected. […] All tests were performed in triplicate, and with a minimum of three independent repeats.

Data set [5] relates to S. aureus CECT 976. The arrangement: method as in Abreu et al. [44]. The settings on record: antibiotics, broth microdilution, ref Abreu et al. [44]; cited from earlier work.
Data set [6] deals with S. aureus SA1199B. The settings on record: antibiotics, ref Abreu et al. [44]; cited from earlier work.

The text below walks through data of PMC10778626, “Efficacy of Novel Quaternary Ammonium and Phosphonium Salts Differing in Cation Type and Alkyl Chain Length against Antibiotic-Resistant Staphylococcus aureus” (International Journal of Molecular Sciences, 2023).

Values after ≈ are worked out from the molar mass of the structure shown. Read-outs that look alike come from different tables or passages of the source.

Take `c1ccc2[nH]cnc2c1` [Benzimidazole]: the “CHI0 pH 2.6” value in data set [1] was 6.300.
With `CCCC(=O)c1ccccc1` [Butyrophenone], the “CHI0 pH 2.6” value in data set [1] is 87.30.
With `Cn1c(=O)c2c(ncn2C)n(C)c1=O` [Caffeine], in [1], the “CHI0 pH 2.6” value was 23.41.
As to `NC(=O)N1c2ccccc2C=Cc2ccccc21` [Carbamazepine], the “CHI0 pH 2.6” value in data set [1] is on record as 60.42.
Take `COc1cc2c(c(OC)c1OC)-c1ccc(OC)c(=O)cc1[C@@H](NC(C)=O)CC2` [Colchicine]: the “CHI0 pH 2.6” value in [1] is given as 43.90.
In the case of `CCCCCCCCCCCCCC[N+](CC)(CC)CC.[Br-]` [Compound 7e, N,N,N-Triethyltetradecan-1-aminium bromide], the minimum bactericidal concentration (MBC) against S. aureus RN4220 came to 8 µg/mL; in the data set with S. aureus XU212, 32 µg/mL; against S. aureus SA1199B [3], 32 µg/mL; in the data set with S. aureus CECT 976 [4] (plated on PCA, read-out: MBC), 16 µg/mL. The MIC in the data set on S. aureus RN4220 was found to be 4 µg/mL; in the data set on S. aureus XU212, 32 µg/mL; against S. aureus SA1199B [3], 16 µg/mL; in the data set on S. aureus CECT 976 [4] (24 h, 37 °C, read-out: MIC), 2 µg/mL. The figures for the “NR uptake (lysosomal activity), % of control” value (shortened to “NR uptake … % of control”) with HepG2 cells (2 µg/mL), in the data set with HepG2 cells (16 µg/mL) and with HepG2 cells (32 µg/mL) were 86.24 ± 1.502% (****), 18.51 ± 2.592% (****) and 16.59 ± 4.378% (****), respectively. Moreover, the “concentration inducing reductions in S. aureus log CFU/mL > 5” value with S. aureus CECT 976 [2] amounted to 3.4 μg/mL.
Take `CCCCCCC(=O)c1ccccc1` [Heptanophenone]: the “CHI0 pH 2.6” value in data set [1] was 112.1.
`c1ccc2[nH]ccc2c1` [Indole]: the “CHI0 pH 2.6” value in data set [1] was 72.10.
`CC(=O)Nc1ccc(O)cc1` [Paracetamol]: the “CHI0 pH 2.6” value in data set [1] was 18.77.
As to `CCC(=O)c1ccccc1` [Propiophenone], the “CHI0 pH 2.6” value in data set [1] is reported as 77.40.
As to `Cn1c(=O)c2[nH]cnc2n(C)c1=O` [Theophylline], the “CHI0 pH 2.6” value in data set [1] is recorded as 17.90.
For `CCCCC(=O)c1ccccc1` [Valerophenone], the “CHI0 pH 2.6” value in data set [1] is 96.40.
Turning to `CC1(C)S[C@@H]2[C@H](NC(=O)[C@H](N)c3ccccc3)C(=O)N2[C@H]1C(=O)O` [[AMP], ampicillin], the MIC with S. aureus CECT 976 [5] was 1.5 µg/mL (≈ 4.29 µM).
Turning to `O=C(O)c1cn(C2CC2)c2cc(N3CCNCC3)c(F)cc2c1=O` [[CIP], ciprofloxacin, reference compound], the “NR uptake … % of control” value is on record as 106.7 ± 11.16% (ns) in the data set on HepG2 cells (2 µg/mL), 96.82 ± 5.237% (ns) in the data set on HepG2 cells (16 µg/mL) and 92.35 ± 6.807% (ns) in the data set on HepG2 cells (32 µg/mL). The MIC with S. aureus SA1199B [6] is reported as 128 µg/mL (≈ 386 µM); in the data set on S. aureus CECT 976 [5] it was 1 µg/mL (≈ 3.02 µM).
On to `CC[C@H]1OC(=O)[C@H](C)[C@@H](O[C@H]2C[C@@](C)(OC)[C@@H](O)[C@H](C)O2)[C@H](C)[C@@H](O[C@@H]2O[C@H](C)C[C@H](N(C)C)[C@H]2O)[C@](C)(O)C[C@@H](C)C(=O)[C@H](C)[C@@H](O)[C@]1(C)O` [[ERY], erythromycin, reference compound], for which the entries for the “NR uptake … % of control” value in the data set on HepG2 cells (2 µg/mL), with HepG2 cells (16 µg/mL) and with HepG2 cells (32 µg/mL) were 108.4 ± 4.998% (ns), 107.1 ± 7.642% (ns) and 110.2 ± 9.546% (ns), respectively. In the data set on S. aureus CECT 976 [5], the MIC is 0.24 µg/mL (≈ 0.327 µM).
Regarding `Cc1onc(-c2ccccc2)c1C(=O)N[C@@H]1C(=O)N2[C@@H]1SC(C)(C)[C@@H]2C(=O)O` [[OXA], oxacillin], the MIC with S. aureus CECT 976 [5] is recorded as 0.48 µg/mL (≈ 1.2 µM).
Turning to `CN(C)[C@@H]1C(O)=C(C(N)=O)C(=O)[C@@]2(O)C(O)=C3C(=O)c4c(O)cccc4[C@@](C)(O)[C@H]3C[C@@H]12` [[TET], tetracycline], the minimal inhibitory concentration (MIC) in the data set with S. aureus CECT 976 [5] is 0.96 µg/mL (≈ 2.16 µM).

As a reminder, the MBC is the smallest concentration meeting the test's criterion for killing. In general, MIC refers to the lowest concentration that inhibits growth of the organism.
